The source of these data is US20230129745A1, “COMPOUNDS, COMPOSITIONS, AND METHODS TO TREAT METABOLIC DISEASE” (Board of Supervisors of Louisiana State University and …, priority 2020, published 2023).

One data set deals with 3T3-L1 cells. As to the kind of experiment: Lipid accumulation (Oil Red O) in differentiating 3T3-L1 cells. Format: cell-based, murine. Conditions: for dose dependence of lipid accumulation activity / lipid accumulation (Oil Red O staining): 2.5, 10, and 25 μM; for lipid accumulation (Oil Red O staining): relative to DMSO; for adipogenesis (Oil Red O and AdipoQ, Fabp4, Pparγ expression): 2.5, 10, or 25 μM, half-strength MDI, FIG. 27. Here is the method:
Cells were then either fixed and stained with Oil Red O (4 days post-differentiation) (panel A), or harvested (3 days post differentiation) for RNA isolation and gene expression analysis of adiponectin (AdipoQ), fatty acid binding protein 4 (Fabp4), or Ppary (panels B-D). All treatments compared to their respective DMSO controls. The Effects of SCO and ROSI were analyzed by t-test, while the effects of individual test compounds were analyzed by one-way ANOVA. *[…], **P<0.01, ***P<0.001, ****P<0.0001 vs DMSO controls.
Cell Culture and Treatments. 3T3-L1 preadipocytes (murine) were cultured as previously described,^3 and induced to differentiate two days after reaching confluence. For experiments using mature adipocytes, cells were induced with a standard methylxanthine-dexamethasone-insulin (MDI) cocktail, which contains 0.5 mM isobutylmethylxanthine (IBMX), 1 μM dexamethasone (DEX), and 1.72 μM insulin in high-glucose Dulbecco's Modified Eagle Medium (DMEM) supplemented with 10% fetal bovine serum (FBS). IBMX, DEX, insulin, and DMEM were obtained from Sigma-Aldrich (St. Louis, Mo.), and FBS from Hyclone (GE Healthcare Life Sciences, Logan, Utah). For differentiation experiments, cells were induced with half-strength MDI cocktail […]. In both cases, cells were fed with high-glucose DMEM+10% FBS with 0.43 μM insulin three days following MDI induction. Test compounds were dissolved in dimethylsulfoxide (DMSO) as 1000× stocks. For differentiation experiments, cells were treated with the compounds (or DMSO vehicle as a control) at the time of induction and at the first feeding there after (3 days post-MDI). For lipolysis experiments on mature adipocytes, cells were fed with high-glucose DMEM+10% FBS 6 days after MDI and treated with test compounds or DMSO vehicle for three days. On the third day cells were also treated overnight with 0.75 nM tumor necrosis factor alpha (TNFα) (Life Technologies, Carlsbad, Calif.) or its vehicle [0.1% bovine serum albumin (BSA) in phosphate buffered saline (PBS)]. The following morning, the culture medium was replaced with lipolysis incubation medium (low-glucose DMEM+2% BSA) and 0.75 nM TNFα(or vehicle). After 4 hours, conditioned medium and cell lysates were collected.
Lipid Accumulation Assay. Five days after MDI induction, cell monolayers were fixed in 10% neutral buffered formalin (ThermoFisher, Waltham, Mass.) and stained with the neutral lipid stain, Oil Red O (ORO). Plates were scanned to generate images of staining. The ORO was then eluted in isopropyl alcohol, and absorbance of eluates was measured at 520 nm for quantitation.

In data set [1] the test system is 3T3-L1 adipocytes. As to the kind of experiment: TNFα-induced lipolysis (glycerol release) in 3T3-L1 adipocytes. Conditions: 2.5, 10, or 25 μM, 3-day pretreatment; 0.75 nM TNFα. Format: cell-based, murine. Here is the method: Fully differentiated 3T3-L1 adipocytes pretreated for three days with 50 μg/ml SCO or varying doses of test compounds (2.5, 10, or 25 μM), then overnight with 0.75 nM TFNα (or vehicle). After 4 hours, the conditioned medium was collected and assayed for glycerol. Data was expressed as fold-change vs TNFα-only treatment. Data from no-TNFα controls and each test compound were analyzed by one-way ANOVA. **P<0.01, ****P<0.0001 vs TNFα-only condition.
Cell Culture and Treatments. 3T3-L1 preadipocytes (murine) were cultured as previously described,^3 and induced to differentiate two days after reaching confluence. For experiments using mature adipocytes, cells were induced with a standard methylxanthine-dexamethasone-insulin (MDI) cocktail, which contains 0.5 mM isobutylmethylxanthine (IBMX), 1 μM dexamethasone (DEX), and 1.72 μM insulin in high-glucose Dulbecco's Modified Eagle Medium (DMEM) supplemented with 10% fetal bovine serum (FBS). IBMX, DEX, insulin, and DMEM were obtained from Sigma-Aldrich (St. Louis, Mo.), and FBS from Hyclone (GE Healthcare Life Sciences, Logan, Utah). […]
FABP4 secretion and lipolysis assays. […] Conditioned media samples were collected after four hours and analyzed for FAPB4 content by immunoblotting. Lipolysis was also assessed by measuring glycerol concentrations in the samples, using free glycerol reagent from Sigma-Aldrich.

The nature of data set [2]: LC-MS of serum from mice fed HFD containing 1% Artemisia scoparia extract. Conditions: archived serum, SCO feeding study in high fat-fed mice, after 4-hour fast. Format: in vivo. Here is the method:
Serum samples of control or SCO-treated mice were analyzed directly without enzyme hydrolysis after protein precipitation (top 2 panels) or after glucuronidase enzyme digestion followed by solvent partitioning (lower 2 panels). Chromatograms were created using selected ion monitoring of m/z 315.159-315.161 specific to capillartemisins. In addition to specific mass, the identity of capillartemisin A was confirmed using our in-house library of spectral data that was confirmed using NMR spectroscopy.
To conduct in vivo assessments of SP's bioavailability or pharmacokinetics, we sent six-year-old archived serum samples from our last SCO feeding study in high fat-fed mice for analysis. These samples were collected at the time of sacrifice after a 4-hour fast, in conditions that were not designed for detection of SCO compounds in the circulation. […] However, capillartemisin A was detected (FIG. 12).

Data set [3] relates to 3T3-L1 adipocytes. Conditions: published data; cited from earlier work.
The target in the next data set is T1, PPARγ (Homo sapiens, UniProt P37231).
T1 construct: NIH-3T3 cells stably transfected with full-length PPARγ (A); expressed in transfected cells
T1 sequence (P37231 1-505): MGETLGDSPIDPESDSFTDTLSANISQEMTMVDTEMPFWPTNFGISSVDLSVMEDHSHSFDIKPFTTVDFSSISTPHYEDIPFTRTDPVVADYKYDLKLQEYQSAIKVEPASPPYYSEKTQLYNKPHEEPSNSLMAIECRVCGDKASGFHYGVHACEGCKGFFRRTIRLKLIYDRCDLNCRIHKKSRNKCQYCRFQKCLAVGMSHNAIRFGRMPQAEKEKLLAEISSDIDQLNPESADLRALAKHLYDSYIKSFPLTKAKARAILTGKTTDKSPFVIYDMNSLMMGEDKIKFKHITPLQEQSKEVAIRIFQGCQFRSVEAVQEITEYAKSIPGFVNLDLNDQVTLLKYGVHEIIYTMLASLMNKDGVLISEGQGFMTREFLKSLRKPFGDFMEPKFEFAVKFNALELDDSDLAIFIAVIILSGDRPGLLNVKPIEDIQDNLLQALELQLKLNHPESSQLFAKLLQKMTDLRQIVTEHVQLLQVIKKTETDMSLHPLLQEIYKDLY
Conditions: Choi et al. 2011; cited from earlier work.

The conditions of data set [4]: 14 days of treatment, db/db mice; cited from earlier work.
A further data set concerns the target T2, caspase 1 (Mus musculus, UniProt P29452).
T2 sequence (P29452 119-402): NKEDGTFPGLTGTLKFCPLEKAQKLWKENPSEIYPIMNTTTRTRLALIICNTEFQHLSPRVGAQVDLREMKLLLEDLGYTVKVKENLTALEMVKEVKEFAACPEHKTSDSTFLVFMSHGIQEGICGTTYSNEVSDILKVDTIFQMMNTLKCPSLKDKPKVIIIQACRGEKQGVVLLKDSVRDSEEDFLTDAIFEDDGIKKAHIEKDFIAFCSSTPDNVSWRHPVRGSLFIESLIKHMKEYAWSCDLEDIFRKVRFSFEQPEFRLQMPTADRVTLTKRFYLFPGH
Conditions: literature; cited from earlier work.

As for `CC(C)=CCc1cc(/C=C/C(=O)O)cc(C/C=C(/C)CO)c1O` [Compound 3, capillartemisin B], in the data set with 3T3-L1 cells, the “dose dependence of lipid accumulation activity” value is on record as “best activity over the tested dose range”; the “lipid accumulation (Oil Red O staining)” value is “enhanced lipid accumulation”; the “adipogenesis (Oil Red O and AdipoQ, Fabp4, Pparγ expression)” value is “promote adipogenesis”. In the data set with 3T3-L1 adipocytes [1], the “inhibition of TNFα-induced lipolysis (glycerol release)” value was “not able to significantly mitigate”. The “detection in serum (LC-MS)” value in data set [2] is on record as “did not detect”.

Regarding `CC(C)=CCc1cc(/C=C/C(=O)O)cc(CC=C(C)C)c1O` [Artepillin C], the “adipogenesis / adipocyte differentiation” value with 3T3-L1 adipocytes [3] is “enhance adipogenesis”. Also, at PPARγ, the PPARγ activation entry was “activate”.

On to `CC(C)=CCc1cc(/C=C/C(=O)O)cc(C/C=C(\C)CO)c1O` [Compound 2, capillartemisin A], for which, in the data set with 3T3-L1 cells, the “dose dependence of lipid accumulation activity” value is listed as “active in a dose-dependent manner”; the “lipid accumulation (Oil Red O staining)” value is recorded as “enhanced lipid accumulation”; the “adipogenesis (Oil Red O and AdipoQ, Fabp4, Pparγ expression)” value was “promote adipogenesis”. The “inhibition of TNFα-induced lipolysis (glycerol release)” value with 3T3-L1 adipocytes [1] is listed as “not able to significantly mitigate”. The “detection in serum (LC-MS)” value in data set [2] is “detected”.

On to `CN(CCOc1ccc(CC2SC(=O)NC2=O)cc1)c1ccccn1` (stereo not drawn) [rosiglitazone], for which, in data set [4], the hematocrit result is recorded as “decreases hematocrit by as much as three percentage points”.

In the case of `O=C(/C=C/c1ccc(O)c(O)c1)O[C@@H]1CC(O)(C(=O)O)C[C@@H](OC(=O)/C=C/c2ccc(O)c(O)c2)C1O` (stereo partly drawn) [DEQA, 3,5-dicaffeoyl-epi-quinic acid], the “adipogenesis / adipocyte differentiation” value with 3T3-L1 adipocytes [3] was “do not promote adipogenesis”. The “caspase 1 activity” value on caspase 1 is “reduce”.
